In patent US6380181B1, “Synthetic catechol derivatives, method for production and use thereof” (priority 1996, dated 2002):
In brackets after ≈: the same amount, converted by molar mass. Where two headings read alike, the source gives them in different places.

Assays:
Format in all cases: cell-based
[1] = tested on: Pseudomonas aeruginosa SG 137; assay: Microdilution test (MIC); conditions: P. aeruginosa SG 137
Protocol: (§1) The minimum inhibiting concentrations (MICs) were determined for the following bacterial strains: Pseudomonas aeruginosa NCTC 10701, NCTC 10662, SG 137, ATCC 27853, KW 799 WT and KW 799/61, E. coli DCO, DC2 and ATCC 25922, Serratia marcescens SG 621; Salmonella gallinarum ATCC 9184, Klebsiella pneumoniae ATCC 10031 and SG 117.

E. coli ATCC 25922 = assay: Microdilution test (MIC)
Protocol: as §1

[2] = tested on: Klebsiella pneumoniae ATCC 10031; assay: Microdilution test (MIC)
Protocol: as §1

[3] = tested on: Pseudomonas aeruginosa ATCC 27853; assay: Microdilution test (MIC); conditions: P. aeruginosa ATCC 27853
Protocol: as §1

[4] = tested on: Stenotrophomonas maltophilia GN 12873; assay: Microdilution test (MIC)
[5] = tested on: Salmonella typhimurium TA 2700
Text: (§2) In the indicator mutants, the synthesis of the respective siderophores, e.g. pyoverdin, pyochelin, enterobactin, aerobactin or yersiniabactin, or the biosynthesis of aromatic compounds, is blocked, or there is a lack of receptors for enterobactin, pyochelin or pyoverdin and for other important components for the bacterial transport of iron (e.g. the membrane proteins Cir, Fiu, FepA and TonB). Under conditions where there is a lack of iron, these mutants therefore cannot grow or can only grow to a very slight extent. In particular, the following indicator mutants were used: Pseudomonas aeruginosa PAO 6609, K 407, 690; E. coli AB 2847, Salmonella typhimurium enb-7, TA 270; Klebsiella pneumoniae KN 4401; Yersinia enterocolitica WAH; Proteus mirabilis 12 (wild); Proteus vulgaris 718 (wild) and Morganella morganii SBK3 (wild). […] The controls used were ferrioxamine E for the Pseudomonas strains, ferrioxamine G and enterobactin for the Salmonella strains, ferrichrome for the E. coli, Klebsiella and Y. enterocol. strains, and 3,4-dihydroxybenzylidene-2,4,6-trimethylaniline for Morganella morganii (see the above literature reference by R. Reissbrodt et al.).
(§3) The annotations + and (+) relate to non-specific promotion of growth.

[6] = tested on: Morganella morganii SBK3 (wild); conditions: M. morg. SBK 3
Text: as §2, §3

[7] = tested on: Pseudomonas aeruginosa K 407; conditions: Pseudomonas aeruginosa K407
Text: as §2, §3

[8] = tested on: Pseudomonas aeruginosa 690
Text: as §2, §3

[9] = tested on: Klebsiella pneumoniae KN 4401; conditions: Klebsiella KN 4401
Text: as §2, §3

[10] = tested on: Salmonella typhimurium enb-7
Text: as §2, §3

E. coli AB 2847 = tested on: E. coli AB 2847
Text: as §2, §3

[11] = tested on: Proteus vulgaris 718 (wild); conditions: Proteus vul. 718
Text: as §2, §3

[12] = tested on: Proteus mirabilis 12 (wild); conditions: Proteus mir. 12
Text: as §2, §3

[13] = tested on: Pseudomonas aeruginosa PAO 6609
Text: as §2, §3

E. coli DC0 (wild type) = assay: Agar diffusion test; conditions: concentration 100 μg/ml
[14] = tested on: Pseudomonas aeruginosa NCTC 10662; assay: Microdilution test (MIC); conditions: P. aeruginosa NCTC 10662
Protocol: as §1

[15] = tested on: Serratia marcescens SG 621; assay: Microdilution test (MIC)
Protocol: as §1

E. coli DC2 = assay: microbe, parasite or virus in culture
Protocol: as §1
(§4) With the test germs KW 799/WT and /61 of Pseudomonas and DCO and DC2 of E. coli, the effect of improved penetration capacity on the efficacy of the substances was investigated.

[16] = tested on: Pseudomonas aeruginosa KW 799/61 (penetration mutant); conditions: P. aeruginosa KW799/61
[17] = tested on: Stenotrophomonas maltophilia GN 12873; assay: Agar diffusion test; conditions: concentration 100 μg/ml
[18] = tested on: Pseudomonas aeruginosa SG 137 (carbenicillin-resistant); assay: Agar diffusion test; conditions: concentration 100 μg/ml, P. aeruginosa SG 137
[19] = tested on: Salmonella gallinarum ATCC 9184; conditions: concentration 100 μg/ml, Salmonella galinarum ATCC 9184
[20] = tested on: Pseudomonas aeruginosa KW 799 WT (wild type); assay: Agar diffusion test; conditions: concentration 100 μg/ml, P. aeruginosa KW799/WT
[21] = tested on: E. coli DC2 (penetration mutant); conditions: concentration 100 μg/ml
[22] = tested on: Pseudomonas aeruginosa KW 799 WT; assay: Microdilution test (MIC); conditions: P. aeruginosa KW 799/WT
Protocol: as §1, §4

[23] = tested on: Pseudomonas aeruginosa KW 799/61; assay: Microdilution test (MIC)
Protocol: as §1, §4

[24] = tested on: Pseudomonas aeruginosa ATCC 27853 (wild type); assay: Agar diffusion test; conditions: concentration 100 μg/ml; P. aeruginosa ATCC 27853
[25] = tested on: Klebsiella pneumoniae SG 117; assay: Agar diffusion test; conditions: concentration 100 μg/ml
[26] = tested on: Klebsiella pneumoniae ATCC 10031; assay: Agar diffusion test; conditions: concentration 100 μg/ml

SMILES	Growth areas of siderophore indicator strains (diameter) [5] [mm]	Growth areas of siderophore indicator strains (diameter) [6] [mm]	Growth areas of siderophore indicator strains (diameter) [7] [mm]	Growth areas of siderophore indicator strains (diameter) [8] [mm]	Growth areas of siderophore indicator strains (diameter) [9] [mm]	Growth areas of siderophore indicator strains (diameter) [10] [mm]	Growth areas of siderophore indicator strains (diameter) (E. coli AB 2847) [mm]	Growth areas of siderophore indicator strains (diameter) [11] [mm]	Growth areas of siderophore indicator strains (diameter) [12] [mm]	Growth areas of siderophore indicator strains (diameter) [13] [mm]	also measured
C[C@@H](O)[C@H]1C(=O)N2C(C(=O)O)=C(S[C@@H]3CN[C@H](C(=O)N(C)C)C3)[C@H](C)[C@H]12 [Meropenem, reference compound]											MIC ([1]; Pseudomonas aeruginosa, SG137): 0.1 mg/L (≈ 0.261 µM); MIC (E. coli ATCC 25922; Escherichia coli, ATCC25922): < 0.05 mg/L; MIC ([2]; ATCC10031): < 0.05 mg/L; MIC ([3]; Pseudomonas aeruginosa, ATCC27853): 0.2 mg/L (≈ 0.522 µM); MIC ([4]; GN12873): > 100 mg/L
CC(=O)Oc1ccc(C=Nc2ccc(C(=O)O)cc2)cc1OC(C)=O [Substance 6, 4-(3,4-Diacetoxybenzylideneamino)-benzoic Acid]	0	25	17	19	25	34	17	25	23	14	
CC(=O)Oc1ccc(N=Cc2cc(C(=O)O)cc(O)c2O)cc1OC(C)=O [Substance 7, 3-[(3,4-Diacetoxyphenylimino)-methyl]-4,5-dihydroxybenzoic Acid]	0	22	0	0	23	0	0	22	20	0	
O=C(O)c1cccc(N=Nc2ccc(O)c(O)c2)c1 [Substance 8, 3-(3,4-Dihydroxyphenylazo)benzoic Acid]	0	20	15	0	20	0	13	20	20	13	
COC(=O)Oc1ccc(C(=O)NN=C(C(=O)O)c2ccccc2)cc1OC(=O)OC [Substance 12, {[3,4-di(Methoxycarbonyloxy)-benzoyl]-hydrazono}-phenylacetic Acid]	0	15	0	12	30	0	14	20	17	14	
COC(=O)Oc1cccc(C(=O)N2COC[C@H]2C(=O)N[C@@H](C(=O)N[C@@H]2C(=O)N3[C@@H]2SC(C)(C)[C@@H]3C(=O)O)c2ccccc2)c1OC(=O)OC [Substance 30, (S)-N-[3-(2,3-di-(Methoxycarbonyloxy)-benzoyl]-oxazolidin-4-oyl]-ampicillin]											inhibition spot diameter in the agar diffusion test (E. coli DC0 (wild type)): 25 mm; MIC values, microdilution test [1]: 0.4 mg/L (≈ 0.571 µM); MIC values, microdilution test (E. coli ATCC 25922): 6.25 mg/L (≈ 8.92 µM); MIC values, microdilution test [14]: 6.25 mg/L (≈ 8.92 µM); MIC values, microdilution test [15]: 50 mg/L (≈ 71.4 µM); MIC values, microdilution test [2]: 6.25 mg/L (≈ 8.92 µM); MIC values, microdilution test (E. coli DC2): 0.4 mg/L (≈ 0.571 µM); inhibition spot diameter in the agar diffusion test ([16]; concentration 100 μg/ml): 33 mm; inhibition spot diameter in the agar diffusion test [17]: 19 mm; inhibition spot diameter in the agar diffusion test [18]: 22 mm; inhibition spot diameter in the agar diffusion test [19]: 29 mm; inhibition spot diameter in the agar diffusion test [20]: 27 mm; MIC values, microdilution test [4]: 3.12 mg/L (≈ 4.45 µM); inhibition spot diameter in the agar diffusion test [21]: 31 mm; MIC values, microdilution test [22]: 0.78 mg/L (≈ 1.11 µM); MIC values, microdilution test [23]: 0.2 mg/L (≈ 0.285 µM)
CC(=O)Oc1cccc(C(=O)NCCCC[C@H](NC(=O)c2cccc(OC(C)=O)c2OC(C)=O)C(=O)N[C@@H](C(=O)N[C@@H]2C(=O)N3[C@@H]2SC(C)(C)[C@@H]3C(=O)O)c2ccccc2)c1OC(C)=O [Substance Na-31, N-[L-2,6-bis-(2,3-diacetoxybenzoylamino)-hexanoyl]-ampicillin]											inhibition spot diameter in the agar diffusion test (E. coli DC0 (wild type); listed as Na-31): 28 mm; inhibition spot diameter in the agar diffusion test [24]: 24 mm; MIC values, microdilution test (E. coli ATCC 25922; listed as Na-31): 0.2 mg/L (≈ 0.218 µM); MIC values, microdilution test ([14]; listed as Na-31): 0.78 mg/L (≈ 0.85 µM); MIC values, microdilution test [3]: 0.78 mg/L (≈ 0.85 µM); inhibition spot diameter in the agar diffusion test [25]: 26 mm; inhibition spot diameter in the agar diffusion test ([16]; [ ] at 50 μg/ml): [38] mm; inhibition spot diameter in the agar diffusion test ([17]; listed as Na-31): 29 mm; inhibition spot diameter in the agar diffusion test ([18]; listed as Na-31): 31 mm; inhibition spot diameter in the agar diffusion test ([19]; listed as Na-31): 34 mm; inhibition spot diameter in the agar diffusion test [26]: 21 mm; inhibition spot diameter in the agar diffusion test ([20]; listed as Na-31): 31 mm; MIC values, microdilution test ([4]; listed as Na-31): 6.25 mg/L (≈ 6.81 µM); inhibition spot diameter in the agar diffusion test ([21]; listed as Na-31): 38 mm
